Test results published in patent US8784795B2, “Methods for determining personalized treatment compositions for prostate cancer and breast cancer” (Caldera Health Ltd., priority 2012, dated 2014).

How the values were obtained:
[1] = tested on: hormone refractory prostate cancer; conditions: clinical trial; cited from earlier work
prostate cancer = conditions: patients; cited from earlier work
blood cells = experiment: Analysis of blood cells treated with Leukine in vivo for changes in perforin levels
Excerpt: […]

Row | Compound | response rate [1] | control of prostate cancer (prostate cancer) | change in perforin levels of blood cells (blood cells)
1 | CC(=O)N1CCN(c2ccc(OCC3COC(Cn4ccnc4)(c4ccc(Cl)cc4Cl)O3)cc2)CC1 (stereo not drawn) [ketoconazole] | 50% | – | –
2 | Leukine®: granulocyte-macrophage colony stimulating factor (GM-CSF; also known as sargramostim; trade name Leukine®) | – | long-term control of prostate cancer in a substantial number of patients | major increases
